In patent publication US20200223839A1, “FLUORO-CONTAINING COMPOUNDS, USE AND PREPARATION THEREOF” (JIANGSU YINGKEBEITA YIYAOKEJI CO. LTD, priority 2017, published 2020):

Legend:
[1] = test system: HL-60; experiment: Cytotoxicity assay by the CTG method, HL-60; assay type: cell-based; conditions: Homo sapiens, HL-60, Leukemia, 72 h
Procedure: (§1) The corresponding cells were harvested from flask into cell culture medium and the cell number were counted. The cells were diluted with culture medium to the desired density and 40 μL of cell suspension was added into each well of 384-well cell culture plate as designated. The plates were covered with lid and placed in room temperature for 30 minutes without shaking and then were transferred plates into 37° C. 5% CO2 incubator overnight for cell attachment.
(§2) Compound preparation and treatment: Test compounds were received or dissolved at 30 mM stock solution and control compound Staurosporine was stored as 10 mM and 1 mM concentration. 45 uL of stock solution was transferred to a 384 pp-plate. 3 fold, 10-point dilution were performed via transferring 15 uL compound into 30 μL DMSO by using TECAN (EVO200) liquid handler. The plates were spun at room temperature at 1,000 RPM for 1 minute and shaken at a plate shaker for 2 minutes. […]
(§3) The plate from incubators were placed and equilibrated at room temperature for 15 minutes. […] 40 μL of CellTiter-Glo reagent were transferred into each well to be detected (at 1:1 to culture medium). Then the plates were placed at room temperature for 30 min followed by reading on EnSpire.
(§4) The inhibition activity was calculated following the formula below: […]
(§5) The IC50 were calculated by fitting the Curve using Xlfit (v5.3.1.3): […]

[2] = test system: U937; experiment: Cytotoxicity assay by the CTG method, U937; assay type: cell-based; conditions: Homo sapiens, U-937, U937, Lymphoma, 72 h
Procedure: as §1, §2, §3, §4, §5

[3] = test system: MDA-MB-453 cells (human breast cancer); experiment: In vivo mouse model, MDA-MB-453, tumor sizes; conditions: MDA-MB-453 mouse model, similar dosage (for example, 100 mg/Kg), FIG. 6
From the text: (§6) MDA-MB-453 cells (human breast cancer) were also studied in a mouse model. […] FIG. 7.

[4] = test system: 786-O; experiment: Cytotoxicity assay by the CTG method, 786-O; assay type: cell-based; conditions: Homo sapiens, 786-0, Kidney cancer, 72 h
Procedure: as §1, §2, §3, §4, §5

[5] = test system: HCT116; experiment: Cytotoxicity assay by the CTG method, HCT116; assay type: cell-based; conditions: Homo sapiens, HCT-116, HCT116, Colon cancer, 72 h
Procedure: as §1, §2, §3, §4, §5

[6] = test system: HT29; experiment: Cytotoxicity assay by the CTG method, HT29; assay type: cell-based; conditions: Homo sapiens, HT-29, HT29, Colon cancer, 72 h
Procedure: as §1, §2, §3, §4, §5

[7] = test system: A498; experiment: Cytotoxicity assay by the CTG method, A498; assay type: cell-based; conditions: Homo sapiens, A498, Kidney cancer, 72 h
Procedure: as §1, §2, §3, §4, §5

[8] = test system: Calu-6; experiment: Cytotoxicity assay by the CTG method, Calu-6; assay type: cell-based; conditions: Homo sapiens, Calu-6, Lung cancer, 72 h
Procedure: as §1, §2, §3, §4, §5

[9] = test system: A549; experiment: Cytotoxicity assay by the CTG method, A549; assay type: cell-based; conditions: Homo sapiens, A549, Lung cancer, 72 h
Procedure: as §1, §2, §3, §4, §5

[10] = test system: PLC/PRF/5; experiment: Cytotoxicity assay by the CTG method, PLC/PRF/5; assay type: cell-based; conditions: Homo sapiens, PLC/PRF/5, Liver cancer, 72 h
Procedure: as §1, §2, §3, §4, §5

[11] = test system: BT-474; experiment: Cytotoxicity assay by the CTG method, BT-474; assay type: cell-based; conditions: Homo sapiens, BT-474, Breast cancer, 72 h
Procedure: as §1, §2, §3, §4, §5

[12] = test system: MDA-MB-468; experiment: Cell culture and cytotoxicity assay (CTG), MDA-MB-468; assay type: cell-based, human
Procedure: (§7) The assayed compounds each was dissolved in DMSO with a final concentration of 10 mM or 40 mM and stored at −20° C. Tumor cell lines A549 (7,000 cells/well), BT474 (12,000 cells/well), MDA-MB-468 (12,000 cells/well), and HCC1937 (6,000 cells/well) were seeded on 96-well plates. And the cells were pre-incubated at 37° C./5% CO2 for 24 hours. The cells were exposed to different concentrations of the assay compounds (from 400 μM to 782 nM, from 200 μM to 391 nM, from 100 μM to 196 nM, and from 50 μM to 98 nM) for the following time:
(§8) After incubation, 100 μL from each well was discarded and CTG base (Proega, G7571, 50 μL) was added and the mixture was agitated for 2 minutes. The mixtures were stored in a dark room for 10 minutes and the viability was analyzed with Multiskan microplate reader.

[13] = test system: A2058; experiment: Cytotoxicity assay by the CTG method, A2058; assay type: cell-based; conditions: Homo sapiens, A2058, Melanoma, 72 h
Procedure: as §1, §2, §3, §4, §5

[14] = test system: MDA-MB-468; experiment: Cytotoxicity assay by the CTG method, MDA-MB-468; assay type: cell-based; conditions: Homo sapiens, MDA-MB-468, Breast cancer, 72 h
Procedure: as §1, §2, §3, §4, §5

[15] = test system: MCF-7; experiment: Cytotoxicity assay by the CTG method, MCF-7; assay type: cell-based; conditions: Homo sapiens, MCF7, MCF-7, Breast cancer, 72 h
Procedure: as §1, §2, §3, §4, §5

[16] = test system: SK-MEL-3; experiment: Cytotoxicity assay by the CTG method, SK-MEL-3; assay type: cell-based; conditions: Homo sapiens, SK-MEL3, SK-MEL-3, Melanoma, 72 h
Procedure: as §1, §2, §3, §4, §5

[17] = test system: T-47D; experiment: Cytotoxicity assay by the CTG method, T-47D; assay type: cell-based; conditions: Homo sapiens, T47D, Breast cancer, 72 h
Procedure: as §1, §2, §3, §4, §5

[18] = test system: MOLT4; experiment: Cytotoxicity assay by the CTG method, MOLT4; assay type: cell-based; conditions: Homo sapiens, MOLT-4, MOLT4, Leukemia, 72 h
Procedure: as §1, §2, §3, §4, §5

[19] = In vivo mouse model, Hep3B, mice weights
From the text: Hep3B cells (human liver cancer) were also studied in a mouse model. […] FIG. 9.

[20] = In vivo mouse model, MDA-MB-453, mice weights; conditions: MDA-MB-453 mouse model
From the text: as §6

[21] = test system: LNCaP; experiment: Cytotoxicity assay by the CTG method, LNCaP; assay type: cell-based; conditions: Homo sapiens, Prostate cancer, 72 h
Procedure: as §1, §2, §3, §4, §5

[22] = test system: HCC1937; experiment: Cell culture and cytotoxicity assay (CTG), HCC1937; assay type: cell-based; conditions: Homo sapiens, HCC1937, exposure 72 hours
Procedure: as §7, §8

[23] = test system: CaKi-1; experiment: Cytotoxicity assay by the CTG method, CaKi-1; assay type: cell-based; conditions: Homo sapiens, CaKi-1, Kidney cancer, 72 h
Procedure: as §1, §2, §3, §4, §5

With `Cc1ccc(S(=O)(=O)Nc2nc3ccccc3nc2Nc2ccc3nsnc3c2)cc1F` [Compound 4f, N-[3-(benzo[1,2,5]thiadiazol-5-ylamino)-quinoxalin-2-yl]-3-fluoro-4-methyl-benzenesulfonamide] the IC50 [1] was 7.61 µM, the IC50 [2] was 3.68 µM and the “anticancer activities (tumor sizes) compared with Ref. 2” value [3] was “better anticancer activities than Ref. 2”. It also gave an IC50 [4] of 5.74 µM, an IC50 [5] of 5.44 µM and an IC50 [6] of 2.44 µM. The IC50 [7] was 3.68 µM, the IC50 [8] was 4.89 µM and the IC50 [9] was 8.33 µM. For the same compound, the IC50 [10] was 3.27 µM, the IC50 [11] was 7.01 µM and the IC50 ([12]; Homo sapiens, MDA-MB-468, exposure 72 hours, CTG) was 781 to 1560 nM. For the same compound, the “anticancer activity compared with known compounds (FIG. 1)” value ([12]; MDA-MB-468 cytotoxicity, versus Ref. 1, Ref. 3, XL147-A, BEZ235) was “much better anticancer activity than any of the known compounds”, the IC50 [13] was 7.7 µM and the IC50 [14] was 2.49 µM. It also gave an IC50 [15] of 5.19 µM, an IC50 [16] of 9.06 µM and an IC50 [17] of 5.74 µM. The IC50 [18] was 4.72 µM, the weight changes ([19]; FIG. 9, 50 mg/Kg) was “no difference in weight changes” and the weight changes ([19]; FIG. 9, 100 mg/Kg) was “no difference in weight changes”. The weight changes ([20]; FIG. 7, 50 mg/Kg) was “no difference in weight changes”, the weight changes ([20]; FIG. 7, 100 mg/Kg) was “no difference in weight changes” and the IC50 [21] was 3.2 µM. For the same compound, the IC50 [22] was 37900 nM and the IC50 [23] was 13 µM.
